Patent US9493480B2, “Monomeric trioxane amide sulfur compounds” (THE JOHNS HOPKINS UNIVERSITY, priority 2011, dated 2016)
Entries after “also recorded” stand apart in the source; their conditions may differ.

Key:
[1] = test system: Plasmodium berghei, ANKA malaria strain; assay: In vivo antimalarial efficacy, single oral dose of trioxane combined with mefloquine hydrochloride in P. berghei infected mice
Protocol: […] Rosenthal, A. S., et al., Malaria-infected Mice are Cured by a Single Oral Dose of New Dimeric Trioxane Sulfones Which are Also Selectively and Powerfully Cytotoxic to Cancer Cells. J. Med. Chem. 2009, 52, 1198-1203. Each of four mice in a group was treated orally 24 hours post infection with a single dose of 0.20 mL [(0.20 mL/1.07 mL)×0.64 mg=0.12 mg] of diluted trioxane solution, […] Alternatively, a single dose of 7.5 mg/kg of trioxane plus 15.0 mg/kg of mefloquine hydrochloride was used. The malariometrics used involved determining blood parasitemia levels, as well as monitoring the duration of animal survival compared to survival time of infected animals receiving no drug.
The average survival time of the malaria-infected animals receiving no drug was 6.8 days post infection. All of the infected mice in this study receiving the trioxane drug artemether (2b) plus mefloquine died on the average on day 18.8 post infection (Table 1, controls). Additionally, a single oral dose of artemether (6 mg/kg) plus lumefantrine (18 mg/kg) was not curative (see Table 1), with the mice dying an average of 12.5 days after infection. […]
(§1) A widely accepted indication of complete cure (i.e., 100% efficacy) is survival of animals to day 30 post infection with no detectable malaria parasites in the animals' blood at that time. It is important to note that the combination of the standard trioxane drug artemether (2b), with either mefloquine hydrochloride or lumefantrine, was not curative (Table 1, controls). […] While 3-fluoroanilide 12b was not curative, administration of 3-methylthioether 3-arteSanilide 12d at a dose of 7.5 mg/kg plus 15 mg/kg mefloquine hydrochloride achieved mouse survival through day 30 after infection; however, all four of the surviving mice appeared sick and had considerable parasitemia levels (25-50%). […] In addition, 3-arteSanilide 12d is more efficacious than 4-arteSanilide 12c. […] Replacing the sulfur atom in 12d with an oxygen atom afforded methyl ether 12p, which prolonged survival time to only 21.8 days after infection. This observation indicates the critical nature of the sulfur atom. In addition, the lipophilicity of 3-arteSanilide 12d was increased by lengthening the alkyl sulfide chain from methyl to n-propyl. 3-n-Propyl sulfide 12l, however, is much less efficacious than the curative methyl sulfide 3-arteSanilide 12d.

[2] = test system: P. falciparum (NF54) Parasites; assay: In vitro antimalarial potencies of trioxanes against P. falciparum (NF54) parasites; type: cell-based; conditions: Plasmodium falciparum, M ± SD of at least four determinations
Protocol: Biology: In Vitro Potencies. Prompted by the unexpected in vivo efficacy of 3-arteSanilide 12d, the in vitro the intrinsic antimalarial activity, free of host-mediated factors, was assayed of compounds that differ in the oxidative state of the sulfur atom (Table 2).

[3] = Stability of the neat compound at 60° C.; type: physicochemical; conditions: absence of solvent
Source text: Hydroboration-oxidation followed by oxidation of the resulting primary alcohol produced C-10 carboxylic acid 11. Posner, G. H., et al., Orally Active, Antimalarial, Anticancer, Artemisinin-derived Trioxane Dimers with High Stability and Efficacy. J. Med. Chem. 2003, 46, 1060-1065. Condensation of carboxylic acid 11 with various anilines yielded a library of C-10 monomeric trioxane anilides 12b-h, 12l, 12o-q (FIG. 2). Scale up synthesis is expected to be straightforward. Without wishing to be bound to any one particular theory, because these anilides 12b-q are C-10 non-acetal derivatives, they are more hydrolytic ally stable than the C-10 acetal first generation artemisinin derivatives, such as artemether (2b) or artesunate (2c). In the absence of solvent, neat 3-arteSanilide 12d, for example, is stable for at least 7 days at 60° C.

[4] = Overt toxicity, behavior and weight gain of treated malaria-infected mice; type: in vivo
Protocol: as §1

P388 leukemia = conditions: NCI Report on NSC 369397, tested on 25 Oct. 1983; cited from earlier work
[5] = single oral dose 100 mg/kg, no mefloquine

Row | SMILES | inhibition in vivo at 100 mg/kg ([1]; Plasmodium berghei, 72 h, single oral dose: trioxane 100 mg/kg, no mefloquine, read-out: % suppression of parasitemia (on day 3 after infection)) | parasitemia in uninfected mice inoculated with blood from the cured mice ([1]; donors: 6 mg/kg trioxane + 18 mg/kg mefloquine, read after 30 days) | mouse survival in words [1, 5] | average survival (days) after infection ([1]; single oral dose 24 h post infection: trioxane 6 mg/kg + mefloquine hydrochloride 18 mg/kg, C57BL/6J male mice, 4 per group) | cure outcome (survival to day 30 with no detectable parasites = complete cure) ([1]; single oral dose of trioxane (6 mg/kg) combined with mefloquine hydrochloride (18 mg/kg)) | % suppression of parasitemia (on day 3 after infection) ([1]; single oral dose: trioxane 6 mg/kg + mefloquine hydrochloride 18 mg/kg) | parasitemia on day 30 after infection in surviving mice ([1]; single oral dose: trioxane 6 mg/kg + mefloquine hydrochloride 18 mg/kg, value of one mouse where so stated) | % suppression of parasitemia (on day 3 after infection) ([1]; single oral dose: trioxane 7.5 mg/kg + mefloquine hydrochloride 15 mg/kg) | average survival (days) after infection ([1]; single oral dose: trioxane 7.5 mg/kg + mefloquine hydrochloride 15 mg/kg, mice, 4 per group) | average survival (days) after infection ([1]; single oral dose: trioxane 100 mg/kg, no mefloquine) | EC50 [2] | time stable, neat [3] | weight gain by day 30 after infection ([4]; 6 mg/kg trioxane + 18 mg/kg mefloquine, compared with uninfected control mice) | overt toxicity or behavioral change attributable to trioxane administration ([4]; malaria-infected mice cured by trioxane combined with mefloquine hydrochloride) | toxicity of single oral dose [4, 5] | activity against P388 leukemia (P388 leukemia)
1 | CSc1cccc(NC(=O)CC[C@H]2O[C@@H]3O[C@@]4(C)CC[C@H]5[C@H](C)CC[C@@H]([C@H]2C)[C@@]35OO4)c1 [12d, 3-arteSanilide] | 97.2% | no parasitemia was detected | prolonged mouse survival | 30 days | complete cure; also recorded: cures malaria-infected mice | >99.9% | ^bNo parasitemia detected on day 30 after infection. | >99.9% | 30 days | 15.0 days | 9.1 ± 0.57 nM | at least 7 days | gained as much weight by day 30 after infection (data not shown) as the uninfected control mice; also recorded: gain as much weight as the control mice | neither overt toxicity nor behavioral change | nontoxic | –
2 | C[C@@H]1CC[C@H]2[C@@H](C)C(=O)O[C@@H]3O[C@@]4(C)CC[C@@H]1[C@]32OO4 [Artemisinin (1), artemisinin, reference compound] | – | – | – | – | – | – | – | – | – | – | 10 ± 1.1 nM | – | – | – | – | inactive
